Values quoted from earlier work as cited in patent US11504416B2, “Formulation with cannabinoids” (PAW POWER, INC., priority 2018, dated 2022).

How the values were obtained:
[1] = intra-articular injection, high molecular weight (>5×10^6 Da)

Row | gastrointestinal absorption (administered orally) | time to peak levels in the bloodstream (after oral ingestion) | tissue distribution of ingested glucosamine (oral ingestion) | Compound | function in subjects with osteoarthritis or rheumatoid arthritis [1]
1 | readily absorbed | ≤ 8 h | localizes to cartilage and joint tissues | N[C@H]1C(O)O[C@H](CO)[C@@H](O)[C@@H]1O (stereo partly shown) [Glucosamine] | 
2 |  |  |  | hyaluronic acid | improves function
